Activity calls are given as the source filed them. Cut-off read from the data, not from the text of the source, for most assays here: actives have a measured Kd and inactives only a lower limit.
Legend:
[1] = target: Inosine-5'-monophosphate dehydrogenase 2 (Homo sapiens, UniProt P12268)
[2] = target: Tyrosine-protein kinase Yes (Homo sapiens, UniProt P07947)
[3] = target: GTP-binding nuclear protein Ran (Homo sapiens, UniProt P62826)
[4] = target: Citron Rho-interacting kinase (Homo sapiens, UniProt O14578)
[5] = target: Cyclin-dependent kinase 12 (Homo sapiens, UniProt Q9NYV4)
[6] = target: T1, Delta(24)-sterol reductase (Homo sapiens, UniProt Q15392)
T1 sequence (Q15392 whole entry): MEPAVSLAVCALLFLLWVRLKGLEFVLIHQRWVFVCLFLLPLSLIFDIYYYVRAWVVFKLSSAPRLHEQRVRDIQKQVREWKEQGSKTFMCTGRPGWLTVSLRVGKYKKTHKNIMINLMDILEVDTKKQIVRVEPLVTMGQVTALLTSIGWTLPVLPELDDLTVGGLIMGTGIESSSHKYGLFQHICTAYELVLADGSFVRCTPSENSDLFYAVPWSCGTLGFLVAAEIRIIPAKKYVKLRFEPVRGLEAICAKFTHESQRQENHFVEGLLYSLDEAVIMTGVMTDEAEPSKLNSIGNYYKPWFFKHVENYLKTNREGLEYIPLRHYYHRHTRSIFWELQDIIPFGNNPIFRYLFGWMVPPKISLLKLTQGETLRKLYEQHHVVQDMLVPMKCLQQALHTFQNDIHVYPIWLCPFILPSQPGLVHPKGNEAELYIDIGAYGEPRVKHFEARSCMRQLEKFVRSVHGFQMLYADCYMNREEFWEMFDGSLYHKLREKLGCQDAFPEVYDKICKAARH

[7] = target: T2, Serine/threonine-protein kinase Nek9 (Homo sapiens, UniProt Q8TD19)
T2 sequence (Q8TD19 whole entry): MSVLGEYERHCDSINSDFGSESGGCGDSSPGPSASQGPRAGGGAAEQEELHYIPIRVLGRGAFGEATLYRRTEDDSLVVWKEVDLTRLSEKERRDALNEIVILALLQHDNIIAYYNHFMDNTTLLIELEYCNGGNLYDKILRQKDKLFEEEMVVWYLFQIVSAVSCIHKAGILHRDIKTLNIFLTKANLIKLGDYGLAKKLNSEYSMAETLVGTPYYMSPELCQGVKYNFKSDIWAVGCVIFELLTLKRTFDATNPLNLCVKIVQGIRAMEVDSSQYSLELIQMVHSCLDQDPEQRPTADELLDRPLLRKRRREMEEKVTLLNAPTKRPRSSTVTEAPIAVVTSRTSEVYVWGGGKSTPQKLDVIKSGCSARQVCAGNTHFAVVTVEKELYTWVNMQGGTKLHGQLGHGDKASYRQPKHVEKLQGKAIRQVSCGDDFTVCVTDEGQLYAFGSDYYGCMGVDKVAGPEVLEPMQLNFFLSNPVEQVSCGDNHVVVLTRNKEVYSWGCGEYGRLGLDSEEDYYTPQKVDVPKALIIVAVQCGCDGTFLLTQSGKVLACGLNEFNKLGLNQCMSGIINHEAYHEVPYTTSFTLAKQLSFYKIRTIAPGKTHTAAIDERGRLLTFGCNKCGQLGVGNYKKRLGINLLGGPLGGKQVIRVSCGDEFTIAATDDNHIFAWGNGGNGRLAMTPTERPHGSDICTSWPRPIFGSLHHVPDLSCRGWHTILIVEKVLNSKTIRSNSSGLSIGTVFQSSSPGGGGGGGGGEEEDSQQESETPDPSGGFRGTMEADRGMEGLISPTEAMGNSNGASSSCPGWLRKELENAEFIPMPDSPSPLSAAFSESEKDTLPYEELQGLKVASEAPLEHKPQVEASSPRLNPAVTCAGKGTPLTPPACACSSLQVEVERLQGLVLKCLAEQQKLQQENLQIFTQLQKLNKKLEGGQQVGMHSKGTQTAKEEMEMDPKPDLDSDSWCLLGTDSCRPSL

[8] = target: Serine/threonine-protein kinase B-raf (Homo sapiens, UniProt P15056)
[9] = target: Ephrin type-A receptor 7 (Homo sapiens, UniProt Q15375)
[10] = target: RAC-gamma serine/threonine-protein kinase (Homo sapiens, UniProt Q9Y243)
[11] = target: Casein kinase I isoform delta (Homo sapiens, UniProt P48730)
[12] = target: MAP/microtubule affinity-regulating kinase 3 (Homo sapiens, UniProt P27448)
[13] = target: TRAF2 and NCK-interacting protein kinase (Homo sapiens, UniProt Q9UKE5)
Note: in the data inactive means no Kd found up to 30 µM.

Sequence of RAC-gamma serine/threonine-protein kinase (Q9Y243 whole entry, canonical isoform): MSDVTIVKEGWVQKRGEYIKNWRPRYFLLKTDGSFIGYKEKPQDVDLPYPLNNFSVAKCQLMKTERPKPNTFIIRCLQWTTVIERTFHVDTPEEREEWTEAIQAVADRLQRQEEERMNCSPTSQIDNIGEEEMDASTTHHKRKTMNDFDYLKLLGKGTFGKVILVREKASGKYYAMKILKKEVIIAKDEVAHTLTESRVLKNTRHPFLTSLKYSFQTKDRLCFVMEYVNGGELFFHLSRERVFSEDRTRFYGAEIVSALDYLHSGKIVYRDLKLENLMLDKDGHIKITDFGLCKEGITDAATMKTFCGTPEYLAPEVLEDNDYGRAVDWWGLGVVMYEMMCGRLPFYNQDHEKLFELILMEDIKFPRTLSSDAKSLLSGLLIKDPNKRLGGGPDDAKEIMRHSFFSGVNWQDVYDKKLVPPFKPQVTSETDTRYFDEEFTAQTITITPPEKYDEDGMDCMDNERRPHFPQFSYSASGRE
Sequence of Cyclin-dependent kinase 12 (Q9NYV4 whole entry): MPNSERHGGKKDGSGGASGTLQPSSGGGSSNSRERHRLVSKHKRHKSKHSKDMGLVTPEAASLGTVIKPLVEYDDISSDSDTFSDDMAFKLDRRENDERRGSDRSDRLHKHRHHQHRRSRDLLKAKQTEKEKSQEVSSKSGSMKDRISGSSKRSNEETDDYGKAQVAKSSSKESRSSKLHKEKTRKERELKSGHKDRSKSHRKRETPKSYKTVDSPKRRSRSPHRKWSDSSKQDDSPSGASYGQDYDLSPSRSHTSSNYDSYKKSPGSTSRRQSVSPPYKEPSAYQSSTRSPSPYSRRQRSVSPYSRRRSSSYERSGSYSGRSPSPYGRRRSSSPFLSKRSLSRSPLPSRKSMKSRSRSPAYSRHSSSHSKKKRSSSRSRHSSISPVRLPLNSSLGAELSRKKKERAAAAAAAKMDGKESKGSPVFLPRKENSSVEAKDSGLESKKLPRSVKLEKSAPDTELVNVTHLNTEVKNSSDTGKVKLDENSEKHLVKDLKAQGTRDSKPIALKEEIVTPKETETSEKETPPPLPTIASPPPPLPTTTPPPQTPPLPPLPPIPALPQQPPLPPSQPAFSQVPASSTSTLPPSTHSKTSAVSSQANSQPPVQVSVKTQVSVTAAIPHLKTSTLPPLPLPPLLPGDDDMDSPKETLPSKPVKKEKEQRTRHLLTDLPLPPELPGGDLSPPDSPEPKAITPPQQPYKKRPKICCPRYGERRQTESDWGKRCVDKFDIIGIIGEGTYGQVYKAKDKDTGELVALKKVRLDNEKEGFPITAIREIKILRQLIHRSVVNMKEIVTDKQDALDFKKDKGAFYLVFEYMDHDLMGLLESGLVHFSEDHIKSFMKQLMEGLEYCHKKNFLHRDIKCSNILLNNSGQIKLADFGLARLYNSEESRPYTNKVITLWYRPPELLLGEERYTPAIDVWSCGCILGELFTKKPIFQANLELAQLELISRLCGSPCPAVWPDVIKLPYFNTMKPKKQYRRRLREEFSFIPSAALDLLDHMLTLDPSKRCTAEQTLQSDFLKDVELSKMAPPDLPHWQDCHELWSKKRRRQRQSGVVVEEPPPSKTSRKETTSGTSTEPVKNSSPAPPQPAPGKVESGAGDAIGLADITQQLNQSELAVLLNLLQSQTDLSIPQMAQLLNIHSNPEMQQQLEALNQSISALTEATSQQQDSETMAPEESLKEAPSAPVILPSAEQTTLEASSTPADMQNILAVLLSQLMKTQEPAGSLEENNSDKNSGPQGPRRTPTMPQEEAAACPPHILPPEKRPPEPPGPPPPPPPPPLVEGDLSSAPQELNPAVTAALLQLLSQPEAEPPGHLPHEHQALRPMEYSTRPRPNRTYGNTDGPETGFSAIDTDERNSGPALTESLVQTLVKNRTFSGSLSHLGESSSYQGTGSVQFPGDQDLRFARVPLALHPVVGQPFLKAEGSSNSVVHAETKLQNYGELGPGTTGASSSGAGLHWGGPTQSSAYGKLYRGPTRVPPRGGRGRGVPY
Sequence of Casein kinase I isoform delta (P48730 whole entry, canonical isoform): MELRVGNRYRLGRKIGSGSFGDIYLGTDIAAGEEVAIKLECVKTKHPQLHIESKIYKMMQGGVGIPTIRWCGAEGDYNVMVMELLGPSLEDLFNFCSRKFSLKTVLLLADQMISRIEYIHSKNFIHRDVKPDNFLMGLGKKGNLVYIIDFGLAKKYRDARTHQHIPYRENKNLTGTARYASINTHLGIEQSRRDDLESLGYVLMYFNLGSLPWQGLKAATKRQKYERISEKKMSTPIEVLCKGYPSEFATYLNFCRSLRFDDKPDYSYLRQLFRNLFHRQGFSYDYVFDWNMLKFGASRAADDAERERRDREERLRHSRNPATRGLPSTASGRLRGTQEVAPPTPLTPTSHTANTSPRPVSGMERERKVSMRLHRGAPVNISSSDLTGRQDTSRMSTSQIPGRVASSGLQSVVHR
Sequence of Tyrosine-protein kinase Yes (P07947 whole entry): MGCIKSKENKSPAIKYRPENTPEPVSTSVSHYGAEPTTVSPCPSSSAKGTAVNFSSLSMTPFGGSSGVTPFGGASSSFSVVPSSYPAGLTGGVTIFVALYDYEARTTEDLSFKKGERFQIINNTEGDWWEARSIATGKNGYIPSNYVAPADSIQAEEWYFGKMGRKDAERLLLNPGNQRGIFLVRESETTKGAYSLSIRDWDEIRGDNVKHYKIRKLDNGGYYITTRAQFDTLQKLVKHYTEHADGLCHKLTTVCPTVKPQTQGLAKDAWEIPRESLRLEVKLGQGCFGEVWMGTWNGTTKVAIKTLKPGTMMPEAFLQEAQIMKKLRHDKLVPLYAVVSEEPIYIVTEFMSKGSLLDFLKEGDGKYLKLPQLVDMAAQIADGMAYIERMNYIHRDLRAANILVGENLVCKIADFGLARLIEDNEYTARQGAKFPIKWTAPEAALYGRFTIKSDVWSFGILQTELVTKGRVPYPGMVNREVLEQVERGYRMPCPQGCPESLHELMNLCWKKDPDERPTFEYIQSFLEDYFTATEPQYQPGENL
Sequence of Serine/threonine-protein kinase B-raf (P15056 whole entry): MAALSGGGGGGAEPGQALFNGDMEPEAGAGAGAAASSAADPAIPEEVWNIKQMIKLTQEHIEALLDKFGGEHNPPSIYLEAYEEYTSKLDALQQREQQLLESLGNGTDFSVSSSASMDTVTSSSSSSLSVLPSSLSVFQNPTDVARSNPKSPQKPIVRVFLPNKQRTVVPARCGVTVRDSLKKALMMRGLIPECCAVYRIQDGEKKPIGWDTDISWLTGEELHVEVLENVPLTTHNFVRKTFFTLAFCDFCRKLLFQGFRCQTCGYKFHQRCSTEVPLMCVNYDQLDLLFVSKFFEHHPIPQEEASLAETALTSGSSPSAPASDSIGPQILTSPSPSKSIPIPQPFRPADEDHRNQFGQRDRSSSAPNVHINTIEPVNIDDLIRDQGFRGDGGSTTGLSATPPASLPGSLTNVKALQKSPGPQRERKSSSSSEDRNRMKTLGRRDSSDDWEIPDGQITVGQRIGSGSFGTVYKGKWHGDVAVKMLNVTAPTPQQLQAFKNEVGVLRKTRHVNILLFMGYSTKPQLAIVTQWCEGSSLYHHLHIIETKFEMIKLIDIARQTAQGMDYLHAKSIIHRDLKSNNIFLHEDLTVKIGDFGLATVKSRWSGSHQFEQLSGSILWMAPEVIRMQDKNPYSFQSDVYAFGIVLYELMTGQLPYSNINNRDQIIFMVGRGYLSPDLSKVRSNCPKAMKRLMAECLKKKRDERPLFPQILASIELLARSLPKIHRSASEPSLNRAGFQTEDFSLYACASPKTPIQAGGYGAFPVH
Sequence of Ephrin type-A receptor 7 (Q15375 whole entry): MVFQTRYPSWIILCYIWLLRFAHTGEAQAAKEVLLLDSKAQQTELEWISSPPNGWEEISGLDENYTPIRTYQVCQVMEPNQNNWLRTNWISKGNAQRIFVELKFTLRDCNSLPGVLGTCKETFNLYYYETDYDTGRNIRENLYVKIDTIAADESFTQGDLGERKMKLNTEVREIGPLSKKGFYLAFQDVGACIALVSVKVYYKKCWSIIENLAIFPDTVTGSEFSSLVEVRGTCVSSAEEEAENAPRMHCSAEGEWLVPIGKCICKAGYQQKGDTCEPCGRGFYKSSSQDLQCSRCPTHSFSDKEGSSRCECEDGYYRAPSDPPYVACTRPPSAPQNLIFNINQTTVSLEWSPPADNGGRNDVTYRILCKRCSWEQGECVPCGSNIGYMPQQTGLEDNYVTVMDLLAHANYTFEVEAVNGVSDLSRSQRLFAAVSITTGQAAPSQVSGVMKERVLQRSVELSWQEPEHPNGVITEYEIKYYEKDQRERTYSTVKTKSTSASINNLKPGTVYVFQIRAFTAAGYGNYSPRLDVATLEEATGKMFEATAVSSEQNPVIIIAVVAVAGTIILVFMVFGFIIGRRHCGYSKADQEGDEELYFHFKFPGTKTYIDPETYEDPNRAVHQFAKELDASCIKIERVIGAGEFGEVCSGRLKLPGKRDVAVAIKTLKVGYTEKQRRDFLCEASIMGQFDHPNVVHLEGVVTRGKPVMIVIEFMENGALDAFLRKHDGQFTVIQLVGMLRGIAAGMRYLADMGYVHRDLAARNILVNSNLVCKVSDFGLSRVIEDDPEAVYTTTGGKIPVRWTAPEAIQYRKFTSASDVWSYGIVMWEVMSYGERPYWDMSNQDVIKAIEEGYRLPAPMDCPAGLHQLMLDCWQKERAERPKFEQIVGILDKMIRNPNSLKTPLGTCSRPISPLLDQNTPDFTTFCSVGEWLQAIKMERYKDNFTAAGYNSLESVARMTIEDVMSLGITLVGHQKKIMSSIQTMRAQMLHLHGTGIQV

CN(c1ncccc1CNc1nc(Nc2ccc3c(c2)CC(=O)N3)ncc1C(F)(F)F)S(C)(=O)=O [PF-00562271]
Kd [1]: > 30 µM (inactive)
Kd [2]: > 30 µM (inactive)
Kd [3]: > 30 µM (inactive)
Kd [4]: > 30 µM (inactive)
Kd [5]: > 30 µM (inactive)
Kd [6]: > 30 µM (inactive)
Kd [7]: > 30 µM (inactive)
Kd [8]: > 30 µM (inactive)

COc1cc2c(Oc3ccc4[nH]c(C)cc4c3F)ncnc2cc1OCCCN1CCCC1 [CEDIRANIB]
Kd [1]: > 30 µM (inactive)
Kd [3]: > 30 µM (inactive)
Kd [5]: > 30 µM (inactive)
Kd [6]: > 30 µM (inactive)

N#CCNC(=O)c1ccc(-c2ccnc(Nc3ccc(N4CCOCC4)cc3)n2)cc1 [MOMELOTINIB]
Kd [1]: > 30 µM (inactive)
Kd [2]: > 30 µM (inactive)
Kd [3]: > 30 µM (inactive)
Kd [4]: 0.313 µM (active)
Kd [5]: > 30 µM (inactive)
Kd [6]: > 30 µM (inactive)
Kd [7]: 0.474 µM (active)
Kd [8]: > 30 µM (inactive)
Kd [9]: > 30 µM (inactive)
Kd [10]: > 30 µM (inactive)
Kd [11]: > 30 µM (inactive)

CC(C)(O)CC(=O)NCCn1ccc2ncnc(Nc3ccc(Oc4cccc(C(F)(F)F)c4)c(Cl)c3)c21 [TAK-285]
Kd [1]: > 30 µM (inactive)
Kd [3]: > 30 µM (inactive)
Kd [4]: > 30 µM (inactive)
Kd [5]: > 30 µM (inactive)
Kd [12]: > 30 µM (inactive)
Kd [6]: > 30 µM (inactive)
Kd [13]: > 30 µM (inactive)
Kd [7]: > 30 µM (inactive)
Kd [9]: > 30 µM (inactive)
Kd [10]: > 30 µM (inactive)
Kd [11]: > 30 µM (inactive)

CC1(C)CNc2cc(NC(=O)c3cccnc3NCc3ccncc3)ccc21 [MOTESANIB]
Kd [1]: > 30 µM (inactive)
Kd [3]: > 30 µM (inactive)
Kd [5]: > 30 µM (inactive)
Kd [6]: > 30 µM (inactive)

CN(C)C/C=C/C(=O)Nc1cc2c(Nc3ccc(F)c(Cl)c3)ncnc2cc1O[C@H]1CCOC1 [AFATINIB]
Kd [1]: > 30 µM (inactive)
Kd [3]: > 30 µM (inactive)
Kd [5]: > 30 µM (inactive)
Kd [6]: > 30 µM (inactive)

Cn1cnc2c(F)c(Nc3ccc(Br)cc3Cl)c(C(=O)NOCCO)cc21 [SELUMETINIB]
Kd [1]: > 30 µM (inactive)
Kd [3]: > 30 µM (inactive)
Kd [5]: > 30 µM (inactive)
Kd [6]: > 30 µM (inactive)

Cn1c(=O)n(-c2ccc(C(C)(C)C#N)cc2)c2c3cc(-c4cnc5ccccc5c4)ccc3ncc21 [DACTOLISIB]
Kd [1]: > 30 µM (inactive)
Kd [2]: > 30 µM (inactive)
Kd [3]: > 30 µM (inactive)
Kd [4]: > 30 µM (inactive)
Kd [5]: > 30 µM (inactive)
Kd [6]: > 30 µM (inactive)
Kd [13]: > 30 µM (inactive)
Kd [7]: > 30 µM (inactive)
Kd [8]: > 30 µM (inactive)
Kd [9]: > 30 µM (inactive)
Kd [10]: > 30 µM (inactive)
Kd [11]: > 30 µM (inactive)

COc1cc2c(N3CCN(C(=O)Nc4ccc(OC(C)C)cc4)CC3)ncnc2cc1OCCCN1CCCCC1 [TANDUTINIB]
Kd [5]: > 30 µM (inactive)
Kd [6]: > 30 µM (inactive)

CCN(CCCOc1ccc2c(Nc3cc(CC(=O)Nc4cccc(F)c4)n[nH]3)ncnc2c1)CCOP(=O)(O)O [BARASERTIB]
Kd [1]: > 30 µM (inactive)
Kd [2]: > 30 µM (inactive)
Kd [3]: > 30 µM (inactive)
Kd [4]: > 30 µM (inactive)
Kd [5]: > 30 µM (inactive)
Kd [6]: > 30 µM (inactive)
Kd [13]: > 30 µM (inactive)
Kd [7]: > 30 µM (inactive)
Kd [8]: > 30 µM (inactive)
Kd [9]: > 30 µM (inactive)
Kd [10]: > 30 µM (inactive)
Kd [11]: > 30 µM (inactive)

C[C@@]1(C(=O)Nc2ccc(F)nc2)CCCN1c1nc(Nc2cc(C3CC3)n[nH]2)c2cccn2n1 [BMS-754807]
Kd [1]: > 30 µM (inactive)
Kd [3]: > 30 µM (inactive)
Kd [5]: > 30 µM (inactive)
Kd [6]: > 30 µM (inactive)
Kd [10]: > 30 µM (inactive)

C[C@]1(O)C[C@@H](c2nc(-c3ccc4ccc(-c5ccccc5)nc4c3)c3c(N)nccn32)C1 [LINSITINIB]
Kd [1]: > 30 µM (inactive)
Kd [2]: > 30 µM (inactive)
Kd [3]: > 30 µM (inactive)
Kd [4]: > 30 µM (inactive)
Kd [5]: > 30 µM (inactive)
Kd [6]: > 30 µM (inactive)
Kd [13]: > 30 µM (inactive)
Kd [7]: > 30 µM (inactive)
Kd [8]: > 30 µM (inactive)
Kd [9]: > 30 µM (inactive)
